According to ChEMBL document CHEMBL3232940, “TNF-α inhibition elicited by mansoins A and B, heterotrimeric flavonoids isolated from Mansoa hirsuta” (J Nat Prod, 2014):

Assay: Antiinflammatory activity in human THP1 cells assessed as inhibition of LPS-induced TNF-alpha production preincubated for 3 hrs followed by LPS-challenge measured after overnight incubation by sandwich ELISA
Type: functional, cell-based
Settings: THP-1

IC50 [µM] | Structure (SMILES)
48.1 | O=C1C[C@@H](c2ccc(O)c(O[C@@H]3O[C@H](CO)[C@@H](O)[C@H](O)[C@H]3O)c2)Oc2c1c(O)c([C@@H](CCc1ccc(O)cc1)c1ccc(O)cc1O[C@@H]1O[C@H](CO)[C@@H](O)[C@H](O)[C@H]1O)c(O)c2[C@@H](CCc1ccc(O)cc1)c1ccc(O)cc1O[C@@H]1O[C@H](CO)[C@@H](O)[C@H](O)[C@H]1O
20 | O=C1C[C@@H](c2ccc(O)c(O)c2)Oc2c1c(O)c([C@@H](CCc1ccc(O)cc1)c1ccc(O)cc1O[C@@H]1O[C@H](CO)[C@@H](O)[C@H](O)[C@H]1O)c(O)c2[C@@H](CCc1ccc(O)cc1)c1ccc(O)cc1O[C@@H]1O[C@H](CO)[C@@H](O)[C@H](O)[C@H]1O
